Holding throughout (test): microbe, parasite or virus in culture
One test relates to M. tuberculosis Haarlem. Type of test: cell-based. The settings on record: Mycobacterium tuberculosis.
Test [1] has as its system M. tuberculosis ATCC 35822. Format: cell-based. The settings on record: Mycobacterium tuberculosis, ATCC35822.
In test [2] the test system is M. tuberculosis ATCC 35838. Format: cell-based, Mycobacterium tuberculosis.
The subject of test [3] is M. tuberculosis LAM9 SIT 42. Format: cell-based, Mycobacterium tuberculosis.
The next test deals with M. tuberculosis Beijing. Type of test: cell-based. The settings on record: Mycobacterium tuberculosis.
Test [4] deals with M. tuberculosis Orphan strain. Format: cell-based. The settings on record: Mycobacterium tuberculosis.
Setting [5] is: Mycobacterium tuberculosis, ATCC35838, f. M. tuberculosis ATCC 35838 (rifampicin-resistant).
[6] abbreviates: Mycobacterium tuberculosis, LAM9SIT42, c. M. tuberculosis LAM9 SIT 42.
Where [7] appears, read: f. M. tuberculosis ATCC 35838 (rifampicin-resistant).

≈ marks a conversion by molar mass, not a printed value. Marks after values point to notes of the source that are not given here.

In the case of `COc1cc(OC)c(S(N)(=O)=O)cc1C(=O)C=Cc1ccccc1` [Compound 17a, 5-Cinnamoyl-2,4-dimethoxybenzenesulfonamide], the MIC against M. tuberculosis Haarlem is above 29 µM; in test [1], above 29 µM; in test [2] (setting [5]), 29 µM (≈ 10.1 µg/mL); in test [3] (setting [6]), above 29 µM; against M. tuberculosis Beijing, 29 µM (≈ 10.1 µg/mL); in test [4], 29 µM (≈ 10.1 µg/mL).
`COc1cc(OC)c(S(N)(=O)=O)cc1C(=O)/C=C/c1ccc2c(c1)OCO2` [Compound 17f, (E)-5-(3-(Benzo[d][1,3]dioxol-5-yl)acryloyl)-2,4-dimethoxybenzenesulfonamide]: the MIC in the test on M. tuberculosis Haarlem was above 2 µM; in test [1], above 25 µM; in test [2] (setting [5]), above 25 µM; in test [3] (setting [6]), above 2 µM; in the test with M. tuberculosis Beijing, above 2 µM; in test [4], above 2 µM.
For the compound `COc1ccc(C(=O)C=Cc2ccccc2)cc1S(=O)(=O)NNC(=O)c1ccncc1` [Compound 19a, 5-Cinnamoyl-N’-isonicotinoyl-2-methoxybenzenesulfonohydrazide], the MIC is above 23 µM in the test on M. tuberculosis Haarlem; above 23 µM in test [1]; below 12 µM in test [2] (setting [5]); below 11 µM in test [2] (setting [7]); 23 µM (≈ 10.1 µg/mL) in test [3] (setting [6]); 23 µM (≈ 10.1 µg/mL) with M. tuberculosis Beijing. For the same compound, the MIC in test [4] is above 23 µM.
For `COc1ccc(/C=C/C(=O)c2ccc(OC)c(S(=O)(=O)NNC(=O)c3ccncc3)c2)cc1` [Compound 19d, (E)-N’-Isonicotinoyl-2-methoxy-5-(3-(4-methoxyphenyl)acryloyl)benzenesulfonohydrazide], the MIC in the test with M. tuberculosis Haarlem is above 21 µM; in test [1] it was above 21 µM; in test [2] (setting [5]) it was 21 µM (≈ 9.82 µg/mL); in test [3] (setting [6]) it was 21 µM (≈ 9.82 µg/mL); against M. tuberculosis Beijing, 21 µM (≈ 9.82 µg/mL); in test [4] it was 21 µM (≈ 9.82 µg/mL).
Turning to `COc1cc(OC)c(S(=O)(=O)NNC(=O)c2ccncc2)cc1C(=O)C=Cc1ccccc1` [Compound 20a, 5-Cinnamoyl-N’-isonicotinoyl-2,4-dimethoxybenzenesulfonohydrazide], the MIC was above 21 µM in the test with M. tuberculosis Haarlem; above 21 µM in test [1]; below 12 µM in test [2] (setting [5]); <11 * µM in test [2] (setting [7]); 21 µM (≈ 9.82 µg/mL) in test [3] (setting [6]); below 11 µM against M. tuberculosis Beijing. The same compound had an MIC in test [4] above 21 µM.
As for `COc1ccc(/C=C/C(=O)c2cc(S(=O)(=O)NNC(=O)c3ccncc3)c(OC)cc2OC)cc1` [Compound 20d, (E)-N’-Isonicotinoyl-2,4-dimethoxy-5-(3-(4-methoxyphenyl)acryloyl)benzenesulfonohydrazide], the MIC with M. tuberculosis Haarlem is above 20 µM; in test [1], above 20 µM; in test [2] (setting [5]) it was 20 µM (≈ 9.95 µg/mL); in test [3] (setting [6]), above 20 µM; against M. tuberculosis Beijing, above 20 µM; in test [4] it was above 20 µM.
As to `COc1cc(OC)c(S(=O)(=O)NNC(=O)c2ccncc2)cc1C(=O)/C=C/c1cc(OC)c(OC)c(OC)c1` [Compound 20e, (E)-N’-Isonicotinoyl-2,4-dimethoxy-5-(3-(3,4,5-trimethoxyphenyl)acryloyl)benzenesulfonohydrazide], the MIC against M. tuberculosis Haarlem is above 18 µM; in test [1], above 18 µM; in test [2] (setting [5]) it was below 12 µM; in test [2] (setting [7]) it was <9.0 * µM; in test [3] (setting [6]), 8.97 µM (≈ 5 µg/mL); in test [3] (c. M. tuberculosis LAM9 SIT 42), <9.0 * µM. Moreover, the MIC was below 9 µM against M. tuberculosis Beijing and above 18 µM in test [4].
Turning to `COc1cc(OC)c(S(=O)(=O)NNC(=O)c2ccncc2)cc1C(=O)/C=C/c1ccc2c(c1)OCO2` [Compound 20f, (E)-5-(3-(Benzo[d][1,3]dioxol-5-yl)acryloyl)-N’-isonicotinoyl-2,4-dimethoxybenzenesulfonohydrazide], the MIC in the test with M. tuberculosis Haarlem is above 20 µM; in test [1], above 20 µM; in test [2] (setting [5]) it was below 12 µM; in test [2] (setting [7]), <10 * µM; in test [3] (setting [6]), 9.77 µM (≈ 5 µg/mL); in test [3] (c. M. tuberculosis LAM9 SIT 42), below 10 µM. Moreover, the MIC in the test on M. tuberculosis Beijing is 20 µM (≈ 10.2 µg/mL); in test [4] it was above 20 µM.
On to `C[C@H]1COc2c(N3CCN(C)CC3)c(F)cc3c(=O)c(C(=O)O)cn1c23` [Levofloxacin, levofloxacin, reference compound], for which the MIC (against M. tuberculosis Haarlem; in test [1]; in test [2] (setting [5]); in test [3] (setting [6]); in the test with M. tuberculosis Beijing; in test [4]) was 2.8 µM (≈ 1.01 µg/mL) each time.

(Values after paper PMC9604400, “Synthesis, Anticancer and Antitubercular Properties of New Chalcones and Their Nitrogen-Containing Five-Membered Heterocyclic Hybrids Bearing Sulfonamide Moiety” (International Journal of Molecular Sciences, 2022).)
